Laboratory results reported in article PMC7948497, “Iron uptake mediated by the plant-derived chelator nicotianamine in the small intestine” (The Journal of Biological Chemistry, 2020).

Biological target: T1, hPAT1 (SLC36A1) (Homo sapiens, UniProt Q7Z2H8)
T1 construct: full open reading frame amplified from human small intestine RNA, pTNT vector, cRNA injected into Xenopus laevis oocytes; 476 residues, about 53 kDa
Assay: two-electrode voltage clamp of Xenopus oocytes, substrate-induced current; inhibition of NA-Fe(II)-elicited current
Type: cell-based
Conditions: pH 6.0, -60 mV; 0.5 mM NA-Fe(II) (figure legend; Methods say 1 mM)

T1 sequence (Q7Z2H8 whole entry): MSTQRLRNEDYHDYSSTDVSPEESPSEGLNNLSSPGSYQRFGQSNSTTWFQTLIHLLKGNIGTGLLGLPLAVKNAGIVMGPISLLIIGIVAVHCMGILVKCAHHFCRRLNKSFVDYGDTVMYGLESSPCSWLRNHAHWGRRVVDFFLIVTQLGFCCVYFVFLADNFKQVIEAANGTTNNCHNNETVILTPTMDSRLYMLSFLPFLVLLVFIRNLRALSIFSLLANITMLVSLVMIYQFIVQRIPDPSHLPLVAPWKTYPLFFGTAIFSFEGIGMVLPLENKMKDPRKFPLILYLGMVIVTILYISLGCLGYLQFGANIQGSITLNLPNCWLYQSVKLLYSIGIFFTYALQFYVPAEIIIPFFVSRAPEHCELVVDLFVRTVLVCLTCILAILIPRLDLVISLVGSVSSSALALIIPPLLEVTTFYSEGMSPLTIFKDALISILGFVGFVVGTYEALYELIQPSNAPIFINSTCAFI

% of original current remaining at 5 mM: 30.1%
SMILES: N[C@@H](Cc1c[nH]c2ccc(O)cc12)C(=O)O [5-hydroxytryptophan]
